pIC50, pKd: −log10 of the molar value.
Columns and labels:
[1] = molecular target: T1, FLT3 kinase (Homo sapiens, UniProt P36888); experiment: Competition binding assay, FLT3 Kd
T1 construct: made in house; host or cells: T7 phage display or HEK-293 cells
T1 sequence (P36888 27-993): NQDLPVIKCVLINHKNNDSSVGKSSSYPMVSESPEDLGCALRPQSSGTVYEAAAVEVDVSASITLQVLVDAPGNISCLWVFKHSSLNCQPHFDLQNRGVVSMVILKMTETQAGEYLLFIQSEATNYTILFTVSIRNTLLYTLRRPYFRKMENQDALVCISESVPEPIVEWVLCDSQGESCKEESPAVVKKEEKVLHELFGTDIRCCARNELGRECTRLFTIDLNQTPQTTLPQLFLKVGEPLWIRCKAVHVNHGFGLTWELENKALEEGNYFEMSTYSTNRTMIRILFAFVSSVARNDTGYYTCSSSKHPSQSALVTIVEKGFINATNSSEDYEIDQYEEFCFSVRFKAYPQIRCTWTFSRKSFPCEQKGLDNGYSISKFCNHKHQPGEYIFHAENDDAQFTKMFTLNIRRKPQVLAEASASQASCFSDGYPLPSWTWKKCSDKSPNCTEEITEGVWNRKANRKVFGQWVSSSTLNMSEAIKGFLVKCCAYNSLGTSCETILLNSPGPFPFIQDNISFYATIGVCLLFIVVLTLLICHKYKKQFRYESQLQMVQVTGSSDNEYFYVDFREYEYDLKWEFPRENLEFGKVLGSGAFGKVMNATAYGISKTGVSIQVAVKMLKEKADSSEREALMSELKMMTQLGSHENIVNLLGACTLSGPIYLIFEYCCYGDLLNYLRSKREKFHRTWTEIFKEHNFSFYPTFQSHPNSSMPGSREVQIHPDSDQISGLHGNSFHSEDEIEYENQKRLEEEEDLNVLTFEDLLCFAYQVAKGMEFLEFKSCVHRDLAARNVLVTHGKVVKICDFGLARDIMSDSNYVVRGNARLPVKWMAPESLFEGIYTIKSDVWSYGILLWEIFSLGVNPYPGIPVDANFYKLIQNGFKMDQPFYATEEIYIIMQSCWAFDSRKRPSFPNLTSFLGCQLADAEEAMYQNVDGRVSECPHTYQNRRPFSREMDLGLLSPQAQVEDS
Procedure, shortened: (§1)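 Kinases, either T7 phage fusions or HEK-293-expressed and DNA-tagged, competed for immobilised biotinylated affinity ligand against test compound, 1 h at RT in binding buffer with 6 mM DTT. Bound kinase eluted with 0.5 μM free ligand and quantified by qPCR; Kd from 11-point threefold dilutions.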

[2] = molecular target: kinase panel containing either 359 or 386 distinct kinases; experiment: Selectivity score S10 from competition binding against a panel of kinases; details: compounds at 10 μM; for Kinase specificty: S(10)-386 panel: panel of 386 distinct kinases; for Kinase specificty: S(10)-359 panel: panel of 359 distinct kinases
Description: Competition binding assays used herein were developed, validated and performed as described in Fabian et al., Nature Biotechnology 2005, 23,329-336. Kinases were produced as fusions to T7 phage (See, Fabian et al. or WO04/015142) or alternatively, the kinases were expressed in HEK-293 cells and subsequently tagged with DNA for PCR detection (See, WO08/005,310). For the binding assays, streptavidin-coated magnetic beads were treated with biotinylated affinity ligands for 30 min at room temperature to generate affinity resins. The liganded beads were blocked with excess biotin and washed with blocking buffer (SeaBlock (Pierce), 1% BSA, 0.05% Tween 20, 1 mM DTT) to remove unbound ligand and to reduce non-specific binding. Binding reactions were assembled by combining kinase, liganded affinity beads, and test compounds in 1× binding buffer (20% SeaBlock, 0.17×PBS, 0.05% Tween 20, 6 mM DTT). Test compounds were prepared as 100× stocks in DMSO and diluted into the aqueous environment. Kds were determined using an eleven point threefold serial dilutions. DMSO or control compounds were was added to control assays lacking a test compound. Primary screen assays were performed in polypropylene 384-well plates in a final volume of 20-40 μL, while Kd determinations were performed in polystyrene 96-well plates in a final volume of 135 μL. The assay plates were incubated at room temperature with shaking for 1 hour to allow the binding reactions to reach equilibrium, and the affinity beads were washed extensively with wash buffer (1×PBS, 0.05% Tween 20) to remove unbound protein. The beads were then resuspended in elution buffer (1×PBS, 0.05% Tween 20, 0.5 μM non-biotinylated affinity ligand) and incubated at room temperature with shaking for 30 min. The kinase concentration in the eluates was measured by quantitative PCR.
A selectivity score (S10) is a quantitative measure of selectivity of a compound against a panel of kinases. An S10 was calculated for a compound by dividing the number of kinases found to have a percent of control (DMSO) less than 10 by the total number of distinct kinases tested (excluding mutant variants). Percent of control (POC) is calculated by subtracting the signal of the control compound (POC=0) from the signal of the test compound and dividing the outcome by the signal of DMSO (POC=100) minus the signal of the control compound. For the compounds disclosed herein, S10 scores were obtained by testing the compounds at 10 μM concentration in a kinase panel containing either 359 or 386 distinct kinases.

[3] = molecular target: T2, CSF-1R kinase (Homo sapiens, UniProt P07333); experiment: Competition binding assay, CSF-1R Kd
T2 construct: made in house; host or cells: T7 phage display or HEK-293 cells
T2 sequence (P07333 20-972): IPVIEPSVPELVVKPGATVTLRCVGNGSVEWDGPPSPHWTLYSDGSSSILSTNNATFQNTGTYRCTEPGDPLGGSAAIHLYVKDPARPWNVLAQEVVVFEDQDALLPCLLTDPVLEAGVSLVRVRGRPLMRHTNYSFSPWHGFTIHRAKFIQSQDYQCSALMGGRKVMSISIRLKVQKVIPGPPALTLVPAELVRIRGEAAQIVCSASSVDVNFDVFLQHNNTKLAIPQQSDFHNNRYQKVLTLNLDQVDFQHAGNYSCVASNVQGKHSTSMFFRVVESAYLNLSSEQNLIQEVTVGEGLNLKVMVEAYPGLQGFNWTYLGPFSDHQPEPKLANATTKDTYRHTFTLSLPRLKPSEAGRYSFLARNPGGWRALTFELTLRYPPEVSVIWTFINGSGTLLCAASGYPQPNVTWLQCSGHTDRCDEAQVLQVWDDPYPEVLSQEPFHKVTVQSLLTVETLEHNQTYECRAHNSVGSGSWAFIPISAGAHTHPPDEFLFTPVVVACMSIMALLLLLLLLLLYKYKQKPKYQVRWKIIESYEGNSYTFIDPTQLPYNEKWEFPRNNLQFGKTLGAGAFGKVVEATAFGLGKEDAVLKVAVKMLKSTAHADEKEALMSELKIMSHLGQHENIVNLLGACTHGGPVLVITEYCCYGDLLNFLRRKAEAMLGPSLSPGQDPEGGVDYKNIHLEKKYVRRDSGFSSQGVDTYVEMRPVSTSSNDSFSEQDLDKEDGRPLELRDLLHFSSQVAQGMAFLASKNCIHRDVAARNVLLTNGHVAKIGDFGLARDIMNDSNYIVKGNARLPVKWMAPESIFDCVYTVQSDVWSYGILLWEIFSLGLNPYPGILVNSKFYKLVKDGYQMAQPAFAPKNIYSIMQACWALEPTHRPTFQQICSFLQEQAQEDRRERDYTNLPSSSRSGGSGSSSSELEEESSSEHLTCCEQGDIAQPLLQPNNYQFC
Procedure, shortened: as §1

[4] = test system: MV4-11 cells; experiment: MV4-11 cell proliferation assay (Alamar Blue); assay type: cell-based; details: Homo sapiens, MV4-11, 72 h, 3 days incubation
Procedure, shortened: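 Flt3-ITD MV4-11 cells were serum-starved overnight in Iscove's with 0.5% FBS, then given compound at 9 half-log concentrations (0.5% DMSO) for 3 days at 37° C. Alamar Blue reduction was read after 3 h by fluorescence (560/590 nm). IC50 is the mean of duplicates versus negative control.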

[5] = molecular target: T3, KIT kinase (Homo sapiens, UniProt P10721); experiment: Competition binding assay, KIT Kd
T3 construct: made in house; host or cells: T7 phage display or HEK-293 cells
T3 sequence (P10721 26-976): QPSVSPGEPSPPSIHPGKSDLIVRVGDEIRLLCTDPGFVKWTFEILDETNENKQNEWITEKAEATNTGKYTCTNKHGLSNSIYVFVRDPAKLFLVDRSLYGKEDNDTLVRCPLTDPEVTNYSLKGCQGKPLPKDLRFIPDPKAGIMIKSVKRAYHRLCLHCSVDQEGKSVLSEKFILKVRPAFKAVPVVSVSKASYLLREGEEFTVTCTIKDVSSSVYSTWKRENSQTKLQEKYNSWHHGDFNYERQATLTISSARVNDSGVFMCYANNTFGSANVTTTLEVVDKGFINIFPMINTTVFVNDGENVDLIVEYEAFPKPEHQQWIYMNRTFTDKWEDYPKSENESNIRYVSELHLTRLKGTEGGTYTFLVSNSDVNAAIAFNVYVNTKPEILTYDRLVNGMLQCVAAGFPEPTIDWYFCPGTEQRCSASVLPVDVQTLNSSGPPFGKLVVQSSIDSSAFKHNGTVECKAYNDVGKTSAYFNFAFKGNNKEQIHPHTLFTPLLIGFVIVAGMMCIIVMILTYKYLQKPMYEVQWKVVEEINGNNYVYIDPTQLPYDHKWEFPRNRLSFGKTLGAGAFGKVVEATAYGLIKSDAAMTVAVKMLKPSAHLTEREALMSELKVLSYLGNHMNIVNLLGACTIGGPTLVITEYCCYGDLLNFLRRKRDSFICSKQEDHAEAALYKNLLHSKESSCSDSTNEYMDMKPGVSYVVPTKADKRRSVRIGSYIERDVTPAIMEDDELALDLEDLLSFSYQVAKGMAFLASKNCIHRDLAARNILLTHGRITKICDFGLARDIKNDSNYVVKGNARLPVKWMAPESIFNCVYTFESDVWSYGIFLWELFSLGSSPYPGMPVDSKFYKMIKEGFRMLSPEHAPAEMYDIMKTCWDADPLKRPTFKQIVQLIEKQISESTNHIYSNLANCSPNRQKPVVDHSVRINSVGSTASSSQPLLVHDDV
Procedure, shortened: as §1

Row | SMILES | pKd [1] | Kinase specificty: S(10)-386 panel [2] | pKd [3] | pIC50 [4] | pKd [5] | Kinase specificty: S(10)-359 panel [2]
1 | CN1C(C)(C)CC(=CCNc2ccc(-c3ccc(CC(=O)Nc4cc(C(C)(C)C)on4)cc3)cn2)CC1(C)C [Example 117, N-(5-tert-butylisoxazol-3-yl)-2-(4-(6-(2-(1,2,2,6,6-pentamethylpiperidin-4-ylidene)ethylamino)pyridin-3-yl)phenyl)acetamide] | ≥ 9.00 | B (0.1<B≦0.2 nM) | ≥ 8.00 | ≥ 9.00 | 8.00 to 9.00 | 
2 | CC(C)(C)c1cc(NC(=O)Nc2ccc(-c3cnc(N)c(C#N)c3)cc2)no1 [Example 2, 1-[4-(6-amino-5-cyanopyridin-3-yl)-phenyl]-3-(5-tert-butylisoxazol-3-yl)urea] | ≥ 9.00 |  | ≥ 8.00 | ≥ 9.00 | 8.00 to 9.00 | B (0.1<B≦0.2 nM)
3 | CC1(c2cc(NC(=O)Cc3ccc(-c4ccc(N)nc4)cc3)no2)CC1.CS(=O)(=O)O [Example 100, 5-(4-(2-(5-(1-methylcyclopropyl)isoxazol-3-ylamino)-2-oxoethyl)phenyl)pyridin-2-aminium methanesulfonate] | ≥ 9.00 | A (A≦0.1) | ≥ 8.00 | 8.00 to 9.00 | ≥ 9.00 | 
4 | CC1(c2cc(NC(=O)Cc3ccc(-c4ccc(N)nc4)cc3)no2)COC1.CS(=O)(=O)O [Example 99, 5-(4-(2-((5-(3-methyloxetan-3-yl)isoxazol-3-yl)amino)-2-oxoethyl)phenyl)pyridin-2-aminium methanesulfonate] | ≥ 9.00 | A (A≦0.1) | ≥ 8.00 | 8.00 to 9.00 | 8.00 to 9.00 | 
5 | COc1nc(N)ncc1-c1ccc(NC(=O)Nc2cc(C(C)(C)C)on2)cc1 [Example 50, 1-[4-(2-amino-4-methoxypyrimidin-5-yl)-phenyl]-3-(5-tert-butylisoxazol-3-yl)-urea] | 8.00 to 9.00 |  | ≥ 8.00 | ≥ 9.00 | ≥ 9.00 | B (0.1<B≦0.2 nM)
6 | CC1(c2cc(NC(=O)Nc3ccc(-c4ccc(N)nc4)cc3)no2)COC1.CS(=O)(=O)O [Example 98, 5-(4-(3-(5-(3-methyloxetan-3-yl)isoxazol-3-yl)ureido)phenyl)pyridin-2-aminium methanesulfonate] | 8.00 to 9.00 | A (A≦0.1) | ≥ 8.00 | 7.00 to 8.00 | 8.00 to 9.00 | 
7 | CC1(c2cc(NC(=O)Cc3ccc(-c4cnc(N)c(Cl)c4)cc3)no2)COC1.CS(=O)(=O)O [Example 128, 3-chloro-5-(4-(2-((5-(3-methyloxetan-3-yl)isoxazol-3-yl)amino)-2-oxoethyl)phenyl)pyridin-2-aminium methanesulfonate] | ≥ 9.00 | B (0.1<B≦0.2 nM) | ≥ 8.00 | 8.00 to 9.00 | 8.00 to 9.00 | 
8 | CC(C)(C)c1cc(NC(=O)Cc2ccc(-c3ccc(NCCN4CCOCC4)nc3)cc2)on1.CS(=O)(=O)O [Example 96, 5-(4-(2-(3-tert-butylisoxazol-5-ylamino)-2-oxoethyl)phenyl)-N-(2-morpholinoethyl)pyridin-2-aminium methanesulfonate] | ≥ 9.00 | B (0.1<B≦0.2 nM) | ≥ 8.00 | 8.00 to 9.00 | ≥ 9.00 | 

The next lines start with the values.

Row | pKd [1] | Kinase specificty: S(10)-386 panel [2] | pKd [3] | pIC50 [4] | pKd [5] | Kinase specificty: S(10)-359 panel [2] | SMILES
9 | ≥ 9.00 | A (A≦0.1) | ≥ 8.00 | 8.00 to 9.00 | ≥ 9.00 |  | CC(C)(C)c1cc(NC(=O)Cc2ncc(-c3ccc(N)nc3)cc2F)no1.CS(=O)(=O)O [Example 148, 6′-(2-(5-tert-butylisoxazol-3-ylamino)-2-oxoethyl)-5′-fluoro-3,3′-bipyridin-6-aminium methanesulfonate]
10 | 8.00 to 9.00 | B (0.1<B≦0.2 nM) | 7.00 to 8.00 | 8.00 to 9.00 | 8.00 to 9.00 |  | CC(C)(C)c1cc(NC(=O)Cc2ccc(-c3cnc4[nH]c(=O)oc4c3)cc2)no1 [Example 141, N-(5-tert-butylisoxazol-3-yl)-2-(4-(2-oxo-2,3-dihydrooxazolo[4,5-b]pyridin-6-yl)phenyl)acetamide]
11 | 8.00 to 9.00 |  | ≥ 8.00 | 8.00 to 9.00 | 8.00 to 9.00 | B (0.1<B≦0.2 nM) | CC(C)(C)c1cc(NC(=O)Nc2ccc(-c3cnc4c(c3)OCCN4)cc2)no1 [Example 4, 1-(5-tert-butylisoxazol-3-yl)-3-(4-(3,4-dihydro-2H-pyrido[3,2-b][1,4]oxazin-7-yl)phenyl)urea]
12 | 8.00 to 9.00 |  | 7.00 to 8.00 | 8.00 to 9.00 | 8.00 to 9.00 | A (A≦0.1) | CC(C)(C)c1cc(NC(=O)Nc2ccc(-c3cnc(NCCN4CCOCC4)c(C#N)c3)cc2)no1 [Example 6, 1-(5-tert-butylisoxazol-3-yl)-3-(4-(5-cyano-6-(2-morpholinoethylamino)pyridin-3-yl)phenyl)urea]
13 | 8.00 to 9.00 |  | 7.00 to 8.00 | 7.00 to 8.00 | 8.00 to 9.00 | B (0.1<B≦0.2 nM) | CC(C)(C)c1cc(NC(=O)Nc2ccc(-c3ccc(N)nc3)cc2Cl)no1 [Example 15, 1-(4-(6-aminopyridin-3-yl)-2-chlorophenyl)-3-(5-tert-butylisoxazol-3-yl)urea]
14 | ≥ 9.00 | A (A≦0.1) | 6.30 to 7.00 | 7.00 to 8.00 | ≥ 9.00 |  | CC(C)(C)c1cc(NC(=O)Cc2ccc(-c3ccc(N)nc3)nc2)no1 [Example 155]
15 | ≥ 9.00 | B (0.1<B≦0.2 nM) | ≥ 8.00 | ≥ 9.00 | 8.00 to 9.00 |  | CC(=O)O.CC1(c2cc(NC(=O)Cc3ccc(-c4ccc(N)nc4)cc3)no2)CC1(F)F (centres unmarked) [Example 102, 5-(4-(2-((5-(2,2-difluoro-1-methylcyclopropyl)isoxazol-3-yl)amino)-2-oxoethyl)phenyl)pyridin-2-aminium acetate]
16 | ≥ 9.00 | B (0.1<B≦0.2 nM) | ≥ 8.00 | ≥ 9.00 | 8.00 to 9.00 |  | CC(C)(C)c1cc(NC(=O)Cc2ccc(-c3cnc(N)c(C(F)(F)F)c3)cc2)no1.CS(=O)(=O)O [Example 116, 5-(4-(2-(5-tert-butylisoxazol-3-ylamino)-2-oxoethyl)phenyl)-3-(trifluoromethyl)pyridin-2-aminium methanesulfonate]
